Assay results published in patent US12215140B2, “Method of stabilizing protein contained in specimen and solution for stabilizing protein contained in specimen” (EIKEN KAGAKU KABUSHIKI KAISHA, priority 2018, dated 2025).

Test system: hemoglobin-haptoglobin complex
Experiment: Stability of hemoglobin (as hemoglobin-haptoglobin complex) in samples preserved at 37° C. in preservation solution containing 1 unit/L haptoglobin, Hb measured by latex agglutination method (Examples 1 to 7)
Set-up: species or system human
Conditions: for Hb concentration / Recovery ratio with respect to Hb concentration after 0 days: 37° C.
Outline: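 Latex agglutination (anti-human hemoglobin rabbit polyclonal latex) measured Hb in samples stored at 37 °C up to 21 days; values expressed as % recovery versus day 0. Preservation solution: HEPES 40 mmol/L pH 6.8, BSA 0.1%, NaN3 0.1%, haptoglobin 1 unit/L, phenylboronic acid 0–100 mmol/L, optional sugars; ~300 µg/L Hb, 0.5% feces or none.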

[1] = Feces 1, sugar 50 mmol/L + phenylboronic acid 15 mmol/L, 0 days
[2] = Feces 1, sugar 50 mmol/L + phenylboronic acid 15 mmol/L, 7 days
[3] = Feces 1, sugar 50 mmol/L + phenylboronic acid 15 mmol/L, 14 days
[4] = Feces 1, sugar 50 mmol/L + phenylboronic acid 15 mmol/L, 21 days
[5] = Feces 1, sugar 100 mmol/L + phenylboronic acid 15 mmol/L, 0 days
[6] = Feces 1, sugar 100 mmol/L + phenylboronic acid 15 mmol/L, 7 days
[7] = Feces 1, sugar 100 mmol/L + phenylboronic acid 15 mmol/L, 14 days
[8] = Feces 1, sugar 100 mmol/L + phenylboronic acid 15 mmol/L, 21 days
[9] = Feces 1, sugar 100 mmol/L, no phenylboronic acid, 0 days
[10] = Feces 1, sugar 100 mmol/L, no phenylboronic acid, 7 days
[11] = Feces 1, sugar 100 mmol/L, no phenylboronic acid, 14 days
[12] = Feces 1, sugar 100 mmol/L, no phenylboronic acid, 21 days
[13] = Feces 2, sugar 50 mmol/L + phenylboronic acid 15 mmol/L, 0 days
[14] = Feces 2, sugar 50 mmol/L + phenylboronic acid 15 mmol/L, 7 days
[15] = Feces 2, sugar 50 mmol/L + phenylboronic acid 15 mmol/L, 14 days
[16] = Feces 2, sugar 50 mmol/L + phenylboronic acid 15 mmol/L, 21 days
[17] = Feces 2, sugar 100 mmol/L + phenylboronic acid 15 mmol/L, 0 days
[18] = Feces 2, sugar 100 mmol/L + phenylboronic acid 15 mmol/L, 14 days
[19] = Feces 2, sugar 100 mmol/L + phenylboronic acid 15 mmol/L, 21 days
[20] = Feces 2, sugar 100 mmol/L, no phenylboronic acid, 0 days
[21] = Feces 2, sugar 100 mmol/L, no phenylboronic acid, 7 days
[22] = Feces 2, sugar 100 mmol/L, no phenylboronic acid, 14 days
[23] = Feces 2, sugar 100 mmol/L, no phenylboronic acid, 21 days
[24] = Feces 3, sugar 50 mmol/L + phenylboronic acid 15 mmol/L, 0 days
[25] = Feces 3, sugar 50 mmol/L + phenylboronic acid 15 mmol/L, 7 days
[26] = Feces 3, sugar 50 mmol/L + phenylboronic acid 15 mmol/L, 14 days
[27] = Feces 3, sugar 50 mmol/L + phenylboronic acid 15 mmol/L, 21 days
[28] = Feces 3, sugar 100 mmol/L + phenylboronic acid 15 mmol/L, 0 days
[29] = Feces 3, sugar 100 mmol/L + phenylboronic acid 15 mmol/L, 7 days
[30] = Feces 3, sugar 100 mmol/L + phenylboronic acid 15 mmol/L, 14 days
[31] = Feces 3, sugar 100 mmol/L + phenylboronic acid 15 mmol/L, 21 days
[32] = Feces 3, sugar 100 mmol/L, no phenylboronic acid, 0 days
[33] = Feces 3, sugar 100 mmol/L, no phenylboronic acid, 7 days
[34] = Feces 3, sugar 100 mmol/L, no phenylboronic acid, 14 days
[35] = Feces 3, sugar 100 mmol/L, no phenylboronic acid, 21 days
[36] = No feces, sugar 50 mmol/L + phenylboronic acid 15 mmol/L, 7 days
[37] = No feces, sugar 50 mmol/L + phenylboronic acid 15 mmol/L, 14 days
[38] = No feces, sugar 100 mmol/L + phenylboronic acid 15 mmol/L, 0 days
[39] = No feces, sugar 100 mmol/L + phenylboronic acid 15 mmol/L, 7 days
[40] = No feces, sugar 100 mmol/L + phenylboronic acid 15 mmol/L, 14 days
[41] = No feces, sugar 100 mmol/L + phenylboronic acid 15 mmol/L, 21 days
[42] = No feces, sugar 100 mmol/L, no phenylboronic acid, 7 days
[43] = No feces, sugar 100 mmol/L, no phenylboronic acid, 14 days
[44] = No feces, sugar 100 mmol/L, no phenylboronic acid, 21 days

OC[C@H]1O[C@@](CO)(O[C@H]2O[C@H](CO)[C@@H](O)[C@H](O)[C@H]2O)[C@@H](O)[C@@H]1O [Sucrose, sucrose]
Hb concentration [1]: 291 µg/L
Recovery ratio with respect to Hb concentration after 0 days [1]: 100%
Hb concentration [2]: 281 µg/L
Recovery ratio with respect to Hb concentration after 0 days [2]: 97%
Hb concentration [3]: 274 µg/L
Recovery ratio with respect to Hb concentration after 0 days [3]: 94%
Hb concentration [4]: 268 µg/L
Recovery ratio with respect to Hb concentration after 0 days [4]: 92%
Hb concentration [5]: 286 µg/L
Recovery ratio with respect to Hb concentration after 0 days [5]: 100%
Hb concentration [6]: 272 µg/L
Recovery ratio with respect to Hb concentration after 0 days [6]: 95%
Hb concentration [7]: 270 µg/L
Recovery ratio with respect to Hb concentration after 0 days [7]: 94%
Hb concentration [8]: 258 µg/L
Recovery ratio with respect to Hb concentration after 0 days [8]: 90%
Hb concentration [9]: 264 µg/L
Recovery ratio with respect to Hb concentration after 0 days [9]: 100%
Hb concentration [10]: 115 µg/L
Recovery ratio with respect to Hb concentration after 0 days [10]: 44%
Hb concentration [11]: 70 µg/L
Recovery ratio with respect to Hb concentration after 0 days [11]: 27%
Hb concentration [12]: 80 µg/L
Recovery ratio with respect to Hb concentration after 0 days [12]: 30%
Hb concentration [13]: 273 µg/L
Recovery ratio with respect to Hb concentration after 0 days [13]: 100%
Hb concentration [14]: 266 µg/L
Recovery ratio with respect to Hb concentration after 0 days [14]: 97%
Hb concentration [15]: 232 µg/L
Recovery ratio with respect to Hb concentration after 0 days [15]: 85%
Hb concentration [16]: 212 µg/L
Recovery ratio with respect to Hb concentration after 0 days [16]: 78%
Hb concentration [17]: 267 µg/L
Recovery ratio with respect to Hb concentration after 0 days [17]: 100%
Recovery ratio with respect to Hb concentration after 0 days (Feces 2, sugar 100 mmol/L + phenylboronic acid 15 mmol/L, 7 days): 96%
Hb concentration [18]: 236 µg/L
Recovery ratio with respect to Hb concentration after 0 days [18]: 88%
Hb concentration [19]: 219 µg/L
Recovery ratio with respect to Hb concentration after 0 days [19]: 82%
Hb concentration [20]: 270 µg/L
Recovery ratio with respect to Hb concentration after 0 days [20]: 100%
Hb concentration [21]: 96 µg/L
Recovery ratio with respect to Hb concentration after 0 days [21]: 36%
Hb concentration [22]: 49 µg/L
Recovery ratio with respect to Hb concentration after 0 days [22]: 18%
Hb concentration [23]: 31 µg/L
Recovery ratio with respect to Hb concentration after 0 days [23]: 11%
Hb concentration [24]: 286 µg/L
Recovery ratio with respect to Hb concentration after 0 days [24]: 100%
Hb concentration [25]: 234 µg/L
Recovery ratio with respect to Hb concentration after 0 days [25]: 82%
Hb concentration [26]: 209 µg/L
Recovery ratio with respect to Hb concentration after 0 days [26]: 73%
Hb concentration [27]: 195 µg/L
Recovery ratio with respect to Hb concentration after 0 days [27]: 68%
Hb concentration [28]: 272 µg/L
Recovery ratio with respect to Hb concentration after 0 days [28]: 100%
Hb concentration [29]: 230 µg/L
Recovery ratio with respect to Hb concentration after 0 days [29]: 85%
Hb concentration [30]: 201 µg/L
Recovery ratio with respect to Hb concentration after 0 days [30]: 74%
Hb concentration [31]: 187 µg/L
Recovery ratio with respect to Hb concentration after 0 days [31]: 69%
Hb concentration [32]: 267 µg/L
Recovery ratio with respect to Hb concentration after 0 days [32]: 100%
Hb concentration [33]: 89 µg/L
Recovery ratio with respect to Hb concentration after 0 days [33]: 33%
Hb concentration [34]: 55 µg/L
Recovery ratio with respect to Hb concentration after 0 days [34]: 21%
Hb concentration [35]: 40 µg/L
Recovery ratio with respect to Hb concentration after 0 days [35]: 15%
Recovery ratio with respect to Hb concentration after 0 days (No feces, sugar 50 mmol/L + phenylboronic acid 15 mmol/L, 0 days): 100%
Hb concentration [36]: 253 µg/L
Recovery ratio with respect to Hb concentration after 0 days [36]: 93%
Hb concentration [37]: 246 µg/L
Recovery ratio with respect to Hb concentration after 0 days [37]: 91%
Recovery ratio with respect to Hb concentration after 0 days (No feces, sugar 50 mmol/L + phenylboronic acid 15 mmol/L, 21 days): 95%
Hb concentration [38]: 267 µg/L
Recovery ratio with respect to Hb concentration after 0 days [38]: 100%
Hb concentration [39]: 247 µg/L
Recovery ratio with respect to Hb concentration after 0 days [39]: 93%
Hb concentration [40]: 241 µg/L
Recovery ratio with respect to Hb concentration after 0 days [40]: 90%
Hb concentration [41]: 260 µg/L
Recovery ratio with respect to Hb concentration after 0 days [41]: 97%
Recovery ratio with respect to Hb concentration after 0 days (No feces, sugar 100 mmol/L, no phenylboronic acid, 0 days): 100%
Hb concentration [42]: 228 µg/L
Recovery ratio with respect to Hb concentration after 0 days [42]: 93%
Hb concentration [43]: 223 µg/L
Recovery ratio with respect to Hb concentration after 0 days [43]: 91%
Hb concentration [44]: 222 µg/L
Recovery ratio with respect to Hb concentration after 0 days [44]: 91%
recovery ratio of hemoglobin in the sample (sugar 100 mmol/L further added to other arylboronic acids (3-CPBA, 3-HPBA, 3-APBA) 15 mmol/L, Feces 1, Feces 2, Feces 3): further improved
recovery ratio of hemoglobin in the samples containing fecal specimens (sugar 100 mmol/L, preservation solutions containing no phenylboronic acid): does not improve
recovery ratio of hemoglobin in the sample (sugar 50 or 100 mmol/L further added to phenylboronic acid 15 mmol/L, Feces 1, Feces 2, Feces 3): further improved
recovery ratio of hemoglobin in the samples containing feces (sugar added to phenylboronic acid 15 mmol/L, Feces 1, Feces 2, Feces 3): improved depending on the added concentration
